Here are results for 19 molecules from PubChem BioAssay AID208 (DTP/NCI, 2004).

This test concerns HT29 intrarenal xenograft, nude mice, tumor weight change. Description: NCI In Vivo Anticancer Drug Screen. Data for tumor model HT29;CX-1 Human Adenocarcinoma (MER+) (intrarenal inoculation) in NU/NU BALB/C (nude) mice. The conditions noted are these: endpoint: mean tumor weight change, higher = larger tumour. As to the method: The antitumor activity of compounds was measured in mice bearing transplantable tumors. Survival or tumor size were measured and the results are expressed as the measurement made in the treated group (T) divided by the measurement made in the vehicle treated control group (C). The tumor model used in this assay is HT29;CX-1 Human Adenocarcinoma (MER+) (intrarenal inoculation) in NU/NU BALB/C (nude) mice

Where [1] appears, read: dose: 300.0 mg/kg/injection, schedule: Q04DX004 (sc), vehicle: saline with Tween-80.
[2] abbreviates: dose: 400.0 mg/kg/injection, schedule: Q01DX010 (sc), vehicle: Klucel (hydroxypropylcellulose) (HPC).
Setting [3] is: dose: 800.0 mg/kg/injection, schedule: Q01DX010 (sc), vehicle: Klucel (hydroxypropylcellulose) (HPC).

The structures appear in SMILES notation. Several values for one entry are separate records, joined by “and”; a condition that tells them apart may be missing. Equal entries are not always repeated. Inconclusive results are not listed.

Consider `BrCCC1(CCBr)CCCCC1`, for which the T/C (dose: 300.0 mg/kg/injection, schedule: Q04DX004 (sc), vehicle: water) was 97 % of control; the T/C (dose: 600.0 mg/kg/injection, schedule: Q04DX004 (sc), vehicle: water) was 77 % of control; the T/C (dose: 1200.0 mg/kg/injection, schedule: Q04DX004 (sc), vehicle: water) was 58 % of control; the T/C (dose: 2400.0 mg/kg/injection, schedule: Q04DX004 (sc), vehicle: water) was 76 % of control.
For `O=C(CN1CCOCC1)Nc1nc(-c2ccc(Cl)cc2)cs1`, the T/C is 60 % of control (dose: 50.0 mg/kg/injection, schedule: Q04DX004 (ip), vehicle: saline with Tween-80); 76 % of control (dose: 100.0 mg/kg/injection, schedule: Q04DX004 (ip), vehicle: saline with Tween-80); 73 % of control (dose: 200.0 mg/kg/injection, schedule: Q04DX004 (ip), vehicle: saline with Tween-80); 101 % of control (dose: 400.0 mg/kg/injection, schedule: Q04DX004 (ip), vehicle: saline with Tween-80); 94 % of control (dose: 800.0 mg/kg/injection, schedule: Q04DX004 (ip), vehicle: saline with Tween-80).
With `CCCC(=O)O.CCCC(=O)O.CCCC(=O)O.CCCC(=O)O.[Rh].[Rh]`, the T/C was 99 % of control (dose: 4.0 mg/kg/injection, schedule: Q04DX004 (sc), vehicle: suspension in saline) and 118 % of control (dose: 8.0 mg/kg/injection, schedule: Q04DX004 (sc), vehicle: suspension in saline).
As for `CCC1OCC(C(Cl)CCl)O1` (stereo not drawn), the T/C by setting is: (dose: 177.0 mg/kg/injection, schedule: Q01DX014 (sc), vehicle: other) 57 % of control and 75 % of control; (dose: 267.0 mg/kg/injection, schedule: Q01DX014 (sc), vehicle: other) 85 % of control; (dose: 600.0 mg/kg/injection, schedule: Q01DX014 (sc), vehicle: other) 61 % of control; (dose: 900.0 mg/kg/injection, schedule: Q01DX014 (sc), vehicle: Klucel (hydroxypropylcellulose) (HPC)) 10 % of control.
Regarding `CCCCNc1ccc2nnc(C)n2n1`, the T/C is 116 % of control (dose: 150.0 mg/kg/injection, schedule: Q04DX004 (ip), vehicle: DMSO) and 86 % of control (dose: 150.0 mg/kg/injection, schedule: Q04DX004 (ip), vehicle: sodium bicarbonate).
On to `O=c1[nH]c2c(ccc3cnccc32)c2c1CCC2`, for which the T/C (dose: 225.0 mg/kg/injection, schedule: Q04DX004 (sc), vehicle: suspension in saline) is 67 % of control; the T/C (dose: 450.0 mg/kg/injection, schedule: Q04DX004 (sc), vehicle: suspension in saline) is 67 % of control; the T/C (dose: 900.0 mg/kg/injection, schedule: Q04DX004 (sc), vehicle: suspension in saline) is 73 % of control; the T/C (dose: 1800.0 mg/kg/injection, schedule: Q04DX004 (sc), vehicle: suspension in saline) was 53 % of control.
For the molecule `CC(=O)Oc1[nH]c(=O)c2cccc3c2c1CCC3`, the T/C (dose: 150.0 mg/kg/injection, schedule: Q04DX004 (sc), vehicle: saline with Tween-80) is 207 % of control and the T/C under setting [1] was 105 % of control.
In the case of `CN(C)/N=N/c1nc[nH]c1C(N)=O`, the T/C (dose: 100.0 mg/kg/injection, schedule: Q04DX004 (ip), vehicle: saline) is 157 % of control and the T/C (dose: 150.0 mg/kg/injection, schedule: Q04DX004 (ip), vehicle: saline) is 75 % of control.
On to `CCCC(=O)OCc1cc(=O)n(C)c2c3c4c(cc12)c(C)cc(=O)n4CO3`, for which the T/C runs as follows: (dose: 100.0 mg/kg/injection, schedule: Q01DX010 (sc), vehicle: Klucel (hydroxypropylcellulose) (HPC)) 40 % of control; (dose: 200.0 mg/kg/injection, schedule: Q01DX010 (sc), vehicle: Klucel (hydroxypropylcellulose) (HPC)) 43 % of control; under setting [2], 56 % of control; under setting [3], 27 % of control.
`CC(C)CC(NC(=O)CF)C(=O)O` (stereo not drawn): the T/C is, setting by setting: (dose: 10.0 mg/kg/injection, schedule: Q04DX004 (sc), vehicle: saline) 87 % of control; (dose: 20.0 mg/kg/injection, schedule: Q04DX004 (sc), vehicle: saline) 157 % of control.
In the case of `N#CC(OC1OC(COC2OC(CO)C(O)C(O)C2O)C(O)C(O)C1O)c1ccccc1` (stereo not drawn), the T/C is, setting by setting: (dose: 300.0 mg/kg/injection, schedule: Q04DX004 (sc), vehicle: saline) 95 % of control; (dose: 600.0 mg/kg/injection, schedule: Q04DX004 (sc), vehicle: saline) 96 % of control; (dose: 1200.0 mg/kg/injection, schedule: Q04DX004 (sc), vehicle: saline) 88 % of control; (dose: 2400.0 mg/kg/injection, schedule: Q04DX004 (sc), vehicle: saline) 94 % of control.
As to `O=[N+]([O-])O.O=[N+]([O-])O.[NH-]C1CCCCC1[NH-].[Pt+2]` (stereo not drawn), the T/C reads like this: (dose: 0.5 mg/kg/injection, schedule: Q01DX010 (sc), vehicle: dextrose) 87 % of control; (dose: 1.0 mg/kg/injection, schedule: Q01DX010 (sc), vehicle: dextrose) 62 % of control; (dose: 2.0 mg/kg/injection, schedule: Q01DX010 (sc), vehicle: dextrose) 36 % of control.
For the molecule `O=C1N[C@H]2[C@H](CS[C@H]2CCCCC(=O)N(CCP(c2ccccc2)c2ccccc2)CCP(c2ccccc2)c2ccccc2)N1`, the T/C is 121 % of control (dose: 150.0 mg/kg/injection, schedule: Q04DX004 (sc), vehicle: Klucel (hydroxypropylcellulose) (HPC)) and 86 % of control (dose: 600.0 mg/kg/injection, schedule: Q04DX004 (sc), vehicle: Klucel (hydroxypropylcellulose) (HPC)).
Turning to `O=C(O)CCCc1ccc(N(CCCl)CCCl)cc1`, the T/C is 70 % of control (dose: 0.13 mg/kg/injection, schedule: Q04DX004 (ip), vehicle: Klucel (hydroxypropylcellulose) (HPC)); 77 % of control (dose: 0.2 mg/kg/injection, schedule: Q04DX004 (ip), vehicle: Klucel (hydroxypropylcellulose) (HPC)); 35 % of control (dose: 0.3 mg/kg/injection, schedule: Q04DX004 (ip), vehicle: Klucel (hydroxypropylcellulose) (HPC)); 54 % of control (dose: 40.0 mg/kg/injection, schedule: Q04DX004 (ip), vehicle: Klucel (hydroxypropylcellulose) (HPC)).
Take `C=C(NC(=O)C(=C)NC(=O)c1csc(C2=NC3c4csc(n4)C4NC(=O)c5csc(n5)C(C(C)(O)C(C)O)NC(=O)C5CSC(=N5)/C(=C/C)NC(=O)C(C(C)O)NC(=O)c5csc(n5)C3(CC2)NC(=O)C(C)NC(=O)C(=C)NC(=O)C(C)NC(=O)C(C(C)CC)NC2C=Cc3c(C(C)O)cc(nc3C2O)C(=O)OC4C)n1)C(N)=O` (stereo not drawn): the T/C under setting [2] was 81 % of control; the T/C under setting [3] is 96 % of control; the T/C (dose: 1600.0 mg/kg/injection, schedule: Q01DX010 (sc), vehicle: Klucel (hydroxypropylcellulose) (HPC)) was 44 % of control; the T/C (dose: 2400.0 mg/kg/injection, schedule: Q01DX010 (sc), vehicle: Klucel (hydroxypropylcellulose) (HPC)) was 71 % of control.
With `COc1cc(O)c2c(O)c3c(c4c2c1[C@]1(C4)C(C)=CCCC1(C)C)[C@H](O)[C@@]1(O)CC(=O)C(C(N)=O)=C(O)[C@@]1(O)C3=O`, the T/C (dose: 9.4 mg/kg/injection, schedule: Q04DX004 (ip), vehicle: saline with Tween-80) is 59 % of control; the T/C (dose: 18.8 mg/kg/injection, schedule: Q04DX004 (ip), vehicle: saline with Tween-80) is 87 % of control; the T/C (dose: 37.5 mg/kg/injection, schedule: Q04DX004 (ip), vehicle: saline with Tween-80) was 101 % of control.
For the molecule `O=C(c1cccnc1)c1cc(-c2ccccn2)c(=O)n2ccccc12`, the T/C under setting [1] was 87 % of control; the T/C (dose: 600.0 mg/kg/injection, schedule: Q04DX004 (sc), vehicle: saline with Tween-80) is 21 % of control; the T/C (dose: 1200.0 mg/kg/injection, schedule: Q04DX004 (sc), vehicle: saline with Tween-80) is 77 % of control; the T/C (dose: 2400.0 mg/kg/injection, schedule: Q04DX004 (sc), vehicle: saline with Tween-80) was 83 % of control.
`CC(O)CCC(=O)c1ccoc1` (stereo not drawn): the T/C by setting is: (dose: 3.75 mg/kg/injection, schedule: Q01DX010 (ip), vehicle: saline) 97 % of control; (dose: 7.5 mg/kg/injection, schedule: Q01DX010 (ip), vehicle: saline) 88 % of control; (dose: 15.0 mg/kg/injection, schedule: Q01DX010 (ip), vehicle: saline) 108 % of control; (dose: 30.0 mg/kg/injection, schedule: Q01DX010 (ip), vehicle: saline) 89 % of control.
As for `[Na+]`, the T/C by setting is: (dose: 150.0 mg/kg/injection, schedule: Q04DX004 (ip), vehicle: water) 55 % of control; (dose: 300.0 mg/kg/injection, schedule: Q04DX004 (ip), vehicle: water) 70 % of control; (dose: 600.0 mg/kg/injection, schedule: Q04DX004 (ip), vehicle: water) 16 % of control; (dose: 1200.0 mg/kg/injection, schedule: Q04DX004 (ip), vehicle: water) 76 % of control.
